The source of these data is article PMC6387623 (Proteins, 2018).

For this test, the target named is RGS4 (single-cysteine RGS4 C95) (Rattus norvegicus, UniProt P49799, C71A/C132A/C148A/C183A/C197A/C204A). Nature of the test: Flow cytometry protein interaction assay. The format is binding.

The structures appear in SMILES notation.

Chain of RGS4 (single-cysteine RGS4 C95) (P49799 52-205 C71A/C132A/C148A/C183A/C197A/C204A): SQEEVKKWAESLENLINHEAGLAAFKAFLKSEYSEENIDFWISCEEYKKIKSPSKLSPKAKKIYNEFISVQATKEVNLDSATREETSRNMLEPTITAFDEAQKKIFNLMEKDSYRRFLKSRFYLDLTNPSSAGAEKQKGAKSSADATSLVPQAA

The term IC50 denotes the concentration that gives 50% inhibition. The low end stands for greater potency, the high end for weaker potency. As for `Cc1ccc(-n2sc(=O)n(Cc3ccc(F)cc3)c2=O)cc1` [compound 1, CCG-50014], the IC50 was ~4.5 µM.
